The test has as its target PARP7 (Homo sapiens (Human), UniProt Q7Z3E1). In words: Enzymatic assay for inhibition of PARP7: TR-FRET displacement of biotinylated Probe A from the TIPARP active site. In kind it is binding. Conditions: Table A-1. The method, then: 20 nL of a dose response curve of each test compound was spotted in black 384-well polystyrene proxiplates (Perkin Elmer) using a Mosquito (TTP Labtech). […] Reactions were incubated at 25° C. for an additional 30 min, then read on an Envision platereader equipped with a LANCE/DELFIA top mirror (Perkin Elmer) using excitation of 320 nm and emission of 615 nm and […] with a 90 μs delay. The ratio of the 665/615 nm emission were calculated for each well to determine the amount of complex of TIPARP and Probe A in each well. […] The Hill Coefficient is normally allowed to float but may also be fixed at 1 in a 3-parameter fit. Y is the % inhibition and x is the compound concentration.
(TR-FRET usually uses a lanthanide donor and a delayed reading to cut background.)

Some results are limits rather than exact numbers.

Chain of PARP7 (Q7Z3E1 whole entry): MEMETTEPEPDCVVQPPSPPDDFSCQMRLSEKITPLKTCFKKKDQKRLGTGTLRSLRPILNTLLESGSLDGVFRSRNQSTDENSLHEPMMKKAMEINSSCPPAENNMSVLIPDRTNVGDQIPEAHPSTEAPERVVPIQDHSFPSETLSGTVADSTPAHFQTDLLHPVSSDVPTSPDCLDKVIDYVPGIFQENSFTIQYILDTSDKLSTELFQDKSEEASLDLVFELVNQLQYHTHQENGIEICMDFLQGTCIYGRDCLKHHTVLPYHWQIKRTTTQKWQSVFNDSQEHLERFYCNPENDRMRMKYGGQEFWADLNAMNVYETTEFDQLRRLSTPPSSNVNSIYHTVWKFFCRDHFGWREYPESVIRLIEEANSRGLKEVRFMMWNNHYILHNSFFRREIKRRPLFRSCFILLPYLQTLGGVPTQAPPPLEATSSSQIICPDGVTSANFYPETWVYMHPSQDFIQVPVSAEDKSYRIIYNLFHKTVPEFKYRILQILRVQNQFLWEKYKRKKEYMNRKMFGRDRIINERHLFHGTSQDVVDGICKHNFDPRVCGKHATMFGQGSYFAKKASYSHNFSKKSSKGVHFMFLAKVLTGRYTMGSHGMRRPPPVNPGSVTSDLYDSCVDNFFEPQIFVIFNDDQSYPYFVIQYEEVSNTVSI

As a reminder, the IC50 is the concentration at which inhibition is half-maximal. Consider `C[C@@H](COc1cn[nH]c(=O)c1Cl)OCCC(=O)N1CCN(c2ncc(Cl)cn2)CC1` (single isomer, unassigned) [Example 577 Isomer B], for which the IC50 is less than 100 nM.
With `C[C@@H](COCCC(=O)N1CCN(c2ncc(C(F)(F)F)cn2)CC1)Oc1cn[nH]c(=O)c1Cl` (single isomer, unassigned) [Example 578 Isomer A] the figure was less than 100 nM; with `N#Cc1ccc(N2CCN(C(=O)C[C@@H]3CC[C@@H](COc4cn[nH]c(=O)c4C(F)(F)F)O3)CC2)nc1` (single isomer, unassigned) [Example 580 Isomer A], 100 to 1000 nM.
With `N#Cc1ccc(N2CCN(C(=O)C[C@H]3CC[C@H](COc4cn[nH]c(=O)c4C(F)(F)F)O3)CC2)nc1` (single isomer, unassigned) [Example 580 Isomer B] the figure was 100 to 1000 nM; with `N#Cc1ccc(N2CCN(C(=O)C[C@H]3CC[C@@H](CNc4cn[nH]c(=O)c4C(F)(F)F)O3)CC2)nc1` (single isomer, unassigned) [Example 581 Isomer A], less than 100 nM; with `N#Cc1ccc(N2CCN(C(=O)C[C@@H]3CC[C@@H](CNc4cn[nH]c(=O)c4C(F)(F)F)O3)CC2)nc1` (single isomer, unassigned) [Example 581 Isomer B], less than 100 nM.
`N#Cc1ccc(N2CCN(C(=O)C[C@@H]3CC[C@@H](COc4cn[nH]c(=O)c4Cl)O3)CC2)nc1` (single isomer, unassigned) [Example 582 Isomer A] gave a half-inhibitory concentration (IC50) of no less than 1000 nM.
In the case of `N#Cc1ccc(N2CCN(C(=O)C[C@H]3CC[C@H](COc4cn[nH]c(=O)c4Cl)O3)CC2)nc1` (single isomer, unassigned) [Example 582 Isomer B], the IC50 fell in the range of 100 to 1000 nM.
For the compound `N#Cc1ccc(N2CCN(C(=O)C[C@@H]3CCC[C@@H](COc4cn[nH]c(=O)c4C(F)(F)F)O3)CC2)nc1` (single isomer, unassigned) [Example 583 Isomer A], the IC50 was less than 100 nM.
With `N#Cc1ccc(N2CCN(C(=O)C[C@H]3CCC[C@H](COc4cn[nH]c(=O)c4C(F)(F)F)O3)CC2)nc1` (single isomer, unassigned) [Example 583 Isomer B] the figure was no less than 1000 nM.
The same measure for `CC[C@@H](COCCC(=O)N1CCN(c2ncc(Cl)cn2)CC1)Oc1cn[nH]c(=O)c1C(F)(F)F` (single isomer, unassigned) [Example 591 Isomer A]: less than 100 nM; for `N#Cc1ccc(N2CCN(C(=O)C[C@H]3CC[C@@H]([C@H]4c5ccccc5CN4c4cn[nH]c(=O)c4C(F)(F)F)O3)CC2)nc1` (single isomer, unassigned) [Example 612 Isomer A]: less than 100 nM; for `N#Cc1ccc(N2CCN(C(=O)C[C@H]3CC[C@@H]([C@@H]4c5ccccc5CN4c4cn[nH]c(=O)c4C(F)(F)F)O3)CC2)nc1` (single isomer, unassigned) [Example 612 Isomer B]: less than 100 nM.
Consider `N#Cc1ccc(N2CCN(C(=O)C[C@H]3CC[C@H]([C@@H]4c5ccccc5CN4c4cn[nH]c(=O)c4C(F)(F)F)O3)CC2)nc1` (single isomer, unassigned) [Example 612 Isomer C], for which the IC50 is no less than 1000 nM.
The same measure for `N#Cc1ccc(N2CCN(C(=O)C[C@@H]3CC[C@@H]([C@H]4c5ccccc5CN4c4cn[nH]c(=O)c4C(F)(F)F)O3)CC2)nc1` (single isomer, unassigned) [Example 612 Isomer D]: no less than 1000 nM; for `O=C(CCOC[C@@H](Nc1cn[nH]c(=O)c1C(F)(F)F)[C@@H]1CCOC1)N1CCN(c2ncc(C(F)(F)F)cn2)CC1` (single isomer, unassigned) [Example 614 Isomer A]: no less than 1000 nM.
The same measure for `O=C(CCOC[C@H](Nc1cn[nH]c(=O)c1C(F)(F)F)[C@H]1CCOC1)N1CCN(c2ncc(C(F)(F)F)cn2)CC1` (single isomer, unassigned) [Example 614 Isomer B]: less than 100 nM.
With `C[C@@H](COC[C@H](N)CC(=O)N1CCN(c2ncc(C(F)(F)F)cn2)CC1)Nc1cn[nH]c(=O)c1C(F)(F)F` (single isomer, unassigned) [Example 617 Isomer A] the figure was less than 100 nM; with `C[C@@H](COC[C@@H](N)CC(=O)N1CCN(c2ncc(C(F)(F)F)cn2)CC1)Nc1cn[nH]c(=O)c1C(F)(F)F` (single isomer, unassigned) [Example 617 Isomer B], less than 100 nM; with `C[C@@H](COCCC(=O)N1CCN(c2ncc(C(F)(F)F)cn2)C[C@@H]1C)Nc1cn[nH]c(=O)c1C(F)(F)F` (single isomer, unassigned) [Example 619 Isomer A], less than 100 nM.
`C[C@@H]1CN(c2ncc(C(F)(F)F)cn2)CCN1C(=O)CCOC[C@H](C)Nc1cn[nH]c(=O)c1C(F)(F)F` (single isomer, unassigned) [Example 619 Isomer B] came in with an IC50 of less than 100 nM.
With `COC[C@H](COCCC(=O)N1CCN(c2ncc(C(F)(F)F)cn2)CC1)Sc1cn[nH]c(=O)c1C(F)(F)F` (single isomer, unassigned) [Example 692] the figure was 100 to 1000 nM.
`N#Cc1ccc(N2CCN(C(=O)C/C=C\OC[C@@H]3c4ccccc4CN3c3cn[nH]c(=O)c3C(F)(F)F)CC2)nc1` (single isomer, unassigned; isomer a) [Example 79 Isomer A] had an IC50 of less than 100 nM.
The same measure for `O=C(COC[C@@H]1CCCN1c1cn[nH]c(=O)c1C(F)(F)F)N[C@H]1CC[C@H](Nc2ccccn2)CC1` (single isomer, unassigned; isomer a) [Example 80 Isomer A]: 100 to 1000 nM.
With `O=C(CCOC[C@@H]1CCCN1c1cn[nH]c(=O)c1C(F)(F)F)NC1CCC(Nc2ccccn2)CC1` (single isomer, unassigned; isomer a) [Example 81 Isomer A] the figure was 100 to 1000 nM; with `N#Cc1ccc(N2CCN(C(=O)[C@H]3CC[C@H](OC[C@@H]4CCCN4c4cn[nH]c(=O)c4C(F)(F)F)CC3)CC2)nc1` (single isomer, unassigned; isomer a) [Example 82 Isomer A], less than 100 nM; with `N#Cc1ccc(N2CCN(C(=O)C3CC(OC[C@@H]4CCCN4c4cn[nH]c(=O)c4C(F)(F)F)C3)CC2)nc1` (single isomer, unassigned; isomer a) [Example 95 Isomer A], less than 100 nM.
`N#Cc1ccc(N2CCN(C(=O)C/C=C\OC[C@H]3c4ccccc4CN3c3cn[nH]c(=O)c3C(F)(F)F)CC2)nc1` (single isomer, unassigned; isomer b) [Example 79 Isomer B] came in with an IC50 of less than 100 nM.
The same measure for `O=C(COC[C@@H]1CCCN1c1cn[nH]c(=O)c1C(F)(F)F)NC1CCC(Nc2ccccn2)CC1` (single isomer, unassigned; isomer b) [Example 80 Isomer B]: 100 to 1000 nM; for `O=C(CCOC[C@@H]1CCCN1c1cn[nH]c(=O)c1C(F)(F)F)N[C@H]1CC[C@@H](Nc2ccccn2)CC1` (single isomer, unassigned; isomer b) [Example 81 Isomer B]: no less than 1000 nM.
In the case of `N#Cc1ccc(N2CCN(C(=O)[C@H]3CC[C@@H](OC[C@@H]4CCCN4c4cn[nH]c(=O)c4C(F)(F)F)CC3)CC2)nc1` (single isomer, unassigned; isomer b) [Example 82 Isomer B], the IC50 lay in the range of 100 to 1000 nM.
With `O=C(CCOC[C@@H](Nc1cn[nH]c(=O)c1C(F)(F)F)[C@H]1CCOC1)N1CCN(c2ncc(C(F)(F)F)cn2)CC1` (single isomer, unassigned; isomer c) [Example 614 Isomer C] the figure was less than 100 nM.

(Values after patent US10550105B2 (Ribon Therapeutics Inc., priority 2018, dated 2020).)
